The nature of series [1]: Viscosity (Brookfield digital viscometer). The class given is physicochemical. As to conditions: 20% (w/v) HPβCD solution.
The nature of series [2]: Phase-solubility in aqueous HPβCD solutions.
The nature of series [3]: Experiment A: solubility of alprazolam and diflunisal sodium salt in 10% HPβCD. The following applies: for solubility at 7 days: 22.5 °C, pH 8.36, aqueous with cosolvent or surfactant or cyclodextrin, thermodynamic from solid.
Series [4] in a line: physchem. As to conditions: 22.5 °C, pH 6, aqueous buffer, thermodynamic from solid.
Series [5] in a line: Phase-solubility of cholesterol in aqueous cyclodextrin solutions. The format is physicochemical. As to conditions: aqueous solutions of various β-cyclodextrin derivatives (RMβCD, HPβCD, SBEβCD, TMAβCD, CMβCD), ambient temperature (FIG. 7). The text has this:
This left a very thin layer of cholesterol on the inner surface of the vials.

For series [6] the following is noted: octanol/water partition coefficient, unionized form; cited from earlier work.
Series [7] in a line: Job's plots (continuous variation, NMR and UV). The format is physicochemical. The following applies: sodium salts, buffered solutions (FIG. 3). On the procedure: The total molar concentration (i.e., the combined concentration of drug and HPβCD in moles per liter) was kept constant, but the mole fraction of HPβCD (i.e., [HPβCD]/([drug]+[HPβCD])) were varied from 0.1 to 0.9. The buffer salts were dissolved in 30% (v/v) D2O in water and appropriate amounts of drug and HPβCD were dissolved in the buffer solution. […] […]. The NMR spectra were recorded at 297 K on a Bruker AZ250P 250 MHZ spectrometer (USA). The UV-detector used was a Perkin-Elmer Lambda 3A Spectrophotometer (USA).

A short description of series [8]: physchem. The following applies: 22.5 °C, pH 8.36, aqueous with cosolvent or surfactant or cyclodextrin, thermodynamic from solid.
The conditions of series [9]: pure water at approximately 25° C.; cited from earlier work.

Converted amounts (≈) assume the structure as drawn. “And” between values parts separate entries of the source, which are not always exact repeats. Identical values can stand only once. Counter-ions that a name gives are not always drawn. Like-named read-outs stand apart in the source and are kept apart here.

A word on the solubility: it is the concentration that dissolves in the medium under given conditions. The term log P denotes a log measure of how a compound divides between an organic and an aqueous phase.

Regarding 2-Hydroxypropyl-β-cyclodextrin, in series [1], the viscosity is reported as 2.10 cPoise.

For the molecule `Cc1nnc2n1-c1ccc(Cl)cc1C(c1ccccc1)=NC2` [Alprazolam], the solubility at 7 days is 200 µM (≈ 61.8 µg/mL) in series [2] (22.5 °C, pH 6, aqueous buffer, thermodynamic from solid); 1230 µg/mL and 3980 µM in [3] (10% (w/v) HPβCD solution previously saturated with diflunisal); 590 µg/mL and 1910 µM in [3] (10% aqueous HPβCD solution, unbuffered, room temperature). Further, the “type of phase-solubility diagram” value in series [2] (HPβCD containing pH 6.0 aqueous phosphate buffer solution, no second drug (FIG. 4)) is recorded as “AL-type”; in [2] (aqueous HPβCD solutions saturated with the sodium salt of diflunisal (FIGS. 5, 6)) it was “AL-type”; in series [2] (in the presence of ibuprofen (FIG. 4A)) it was “AL-type”. Also, in series [3] (10% HPβCD saturated with diflunisal vs 10% HPβCD alone), the increase in solubility is given as 108%.

Take `CC/C(=C(/CC)c1ccc(O)cc1)c1ccc(O)cc1` [Diethylstilbestrol]: where the note is “pH 6”, the “Complexation efficiency (slope/(1 − slope))” value is recorded as 2, the “Slope of the phase-solubility diagram” value is 0.71, the “shape of phase-solubility diagram” value is on record as “non-linear” and the “type of phase-solubility diagram” value is “AL-type”. The same molecule displayed a solubility at 7 days in “physchem [4]” of 10 µM (≈ 2.68 µg/mL).

In the case of `CC(C)CCC[C@@H](C)[C@H]1CC[C@H]2[C@@H]3CC=C4C[C@@H](O)CC[C@]4(C)[C@H]3CC[C@]12C` [cholesterol], the “type of phase-solubility diagram” value in series [5] is on record as “AP-type”. In addition, in series [6], the “log P” value is on record as 8.5.

On to `CC(C)CCC[C@@H](C)[C@H]1CC[C@H]2C3=CC=C4C[C@@H](O)CC[C@]4(C)[C@H]3CC[C@]12C` [dehydrocholesterol], for which the “log P” value in series [6] is given as 7.8.

As to `O=C(O)c1cc(-c2ccc(F)cc2F)ccc1O` [diflunisal], the “mole fraction of HPβCD in the complex (Job's plots)” value in series [7] was found to be 0.5. Moreover, for the setting “pH 6”, the “slope of phase-solubility diagram” value was found to be 1.1 and the “type of phase-solubility diagram” value is reported as “AL-type”. In series [6], the “log P” value is 4.4. This molecule also registered a solubility at 7 days in the series “physchem [8]” of roughly 47 mg/mL (≈ 188 mM).

For `O=C(O)Cc1ccccc1Oc1ccc(Cl)cc1Cl` [fenclofenac], the “log P” value in series [6] was 4.8.

With `CC(C)Cc1ccc(C(C)C(=O)[O-])cc1.[Na+]` (stereo not shown) [ibuprofen sodium salt], the “slope of phase-solubility diagram” value by setting is: (pH 6.12) 1.12; (pH 6.28) 1.17; (pH 6.72) 1.12.

For `CC(C)Cc1ccc(C(C)C(=O)O)cc1` (stereo not shown) [ibuprofen], in series [7], the “mole fraction of HPβCD in the complex (Job's plots)” value was determined as 0.5. For the same molecule, for the setting “pH 6”, the “effect of increase in ionic strength on solubility” value is “does not effect”, the “slope of phase-solubility diagram” value amounted to 1.2 and the “type of phase-solubility diagram” value is on record as “AL-type”.

With `O=C(O)c1cc(-c2ccc(F)cc2F)ccc1O` [sodium salt of diflunisal, diflunisal sodium salt], for the setting “pH 8.36”, the “slope of phase-solubility diagram” value amounted to 1.1 and the “type of phase-solubility diagram” value is given as “AL-type”.

As to `Oc1cc(Cl)ccc1Oc1ccc(Cl)cc1Cl` [triclosan], in series [6], the lipophilicity (log P) is 4.8.

As for carotene, the “log P” value in series [6] is recorded as greater than 10.

“β-cyclodextrin sulfobutyl ether sodium salt”: the Solubility in water in series [9] is greater than 500 mg/mL.

The values above are taken from patent US7115586B2, “Non-inclusion cyclodextrin complexes” (Decode Genetics EHF., priority 2001, dated 2006).
